Measurements published in ChEMBL document CHEMBL4888484, “Replenishing the malaria drug discovery pipeline: Screening and hit evaluation of the MMV Hit Generation Library 1 (HGL1) against asexual blood stage Plasmodium falciparum ,using a nano luciferase reporter read-out” (2022).

What was measured:
Plasmodium falciparum [1] = experiment: Hit confirmation in dose-response curve in Dd2 pLDH assay, at 72h; format: functional, organism-based; design: timepoint 72 hour; details: Dd2, Erythrocyte
Plasmodium falciparum [2] = experiment: Hit confirmation in dose-response curve in NF54 pLDH assay, at 72h; format: functional, organism-based; design: timepoint 72 hour; details: NF54, Erythrocyte
Plasmodium falciparum [3] = experiment: Hit confirmation in dose-response curve in NF54 nanoGlo assay, at 72h; format: functional, organism-based, Erythrocyte; design: timepoint 72 hour; details: Plasmodium falciparum, NF54, Erythrocyte, 72 h
[4] = Hit confirmation in dose-response curve in HepG2 cytotoxicity assay, at 72h; format: toxicity, cell-based; design: timepoint 72 hour; details: human, HepG2 cells
Plasmodium falciparum [5] = experiment: Hit confirmation in dose-response curve in NF54 nanoGlo assay, at 12h; format: functional, organism-based, Erythrocyte; design: timepoint 12 hour; details: Plasmodium falciparum, NF54, Erythrocyte, 12 h

SMILES	IC50 (Plasmodium falciparum [1]) [µM]	IC50 (Plasmodium falciparum [2]) [µM]	IC50 (Plasmodium falciparum [3]) [µM]	IC50 (Plasmodium falciparum [5]) [µM]	IC50 at 72 h [4] [µM]
Cc1cc2nc(C)c(=O)n(Cc3ccc(C(=O)NCCN4CCCC[C@@H]4C)cc3)c2cc1C	6.92	5.5	4.17	> 10	> 10
O=C(Nc1ccc(C2(c3ccc(NC(=O)c4ccc(F)cc4)cc3)c3ccccc3C(=O)c3ccccc32)cc1)c1ccc(F)cc1	8.13	5.89	2.04	5.01	> 10
COc1cccc(NC(=O)Cn2c(C)ccc(NS(=O)(=O)c3ccc(C)cc3)c2=O)c1	3.63	7.94	3.24	9.12	> 10
CCn1c(-c2cc(NC(=O)c3ccc4c(c3)OCO4)[nH]n2)cc2ccc(OC)cc21	> 10	> 10	> 10	1.7	> 10
Cc1cc(OC[C@@H](O)CNC(C)(C)CC(C)(C)C)cc(C)c1Cl	4.07	8.32	2.4	4.37	10.5
O=C(Nc1cnc(-n2ccnc2)nc1)C(c1ccccc1)c1ccccc1	5.25	3.98	2.45	7.94	> 10
CC1CC(C(=O)Nc2[nH]c(=O)ncc2F)CC(C)(C)C1 (stereo not given)	> 10	0.00331	0.00204	0.49	> 10
Cc1[nH]c2ncnc(NC(=O)c3cccc(-n4ccnn4)c3)c2c1C	> 10	> 10	8.13	> 10	> 10
COC(=O)c1ccccc1NC(=O)NCCn1nnc2cc(S(=O)(=O)N(C)C)ccc21	> 10	> 10	2.57	> 10	> 10
CC(C)c1cc(=O)[nH]c(-n2nc(C3CC3)cc2NC(=O)Cc2ccc(Cl)cc2)n1	3.89	7.76	1.91	> 10	> 10
CCN(C(=O)Cn1cc(-c2ccccc2)c2ncn(CC)c(=O)c21)c1ccccc1	> 10	> 10	0.759	0.363	> 10
COc1ccccc1C1c2[nH]c3ccccc3c2C[C@H]2C(=O)N(CC(O)c3ccccc3)CC(=O)N12 (stereo not given in full)	> 10	8.91	3.16	4.47	> 10
COc1cc2c(cc1OC)[C@@H](NC(=O)c1cnc(C3(C)OCCO3)s1)CCCC2	4.79	7.41	2.04	4.79	> 10
COc1ccc(Cl)cc1C(=O)Nc1cc(C2CC2)nn1-c1nc(C)cc(=O)[nH]1	8.13	> 10	1.78	> 10	> 10
O=C(Nc1[nH]c(=O)ncc1F)c1coc(-c2ccccc2)n1	> 10	0.0112	0.00589	> 10	> 10
Cc1nc(N2CCC(c3nc(-c4ccccc4)no3)CC2)c2c(C)noc2n1	> 10	> 10	2.51	1.86	> 10
COc1ccc(CNc2nc(-c3nnc(-c4ccccc4)o3)nc3ccccc23)cc1	> 10	> 10	3.02	0.776	> 10
Cc1nn(-c2nc3ccccc3[nH]2)c(O)c1CCC(C)C	3.72	8.51	2.69	8.91	> 10
COc1c(C)cc(C(=O)[C@H]2CCCN(c3cc(N)ncn3)C2)cc1C	> 10	> 10	5.37	5.5	> 10
COc1ccc(-c2c(-c3cccc(OC)c3)[nH]c3c2c(=O)[nH]c(=O)n3C)cc1	> 10	> 10	> 10	> 10	> 10
O=S(=O)(c1ccc(Cl)s1)N1CCC(N2CCc3sccc3C2)CC1	5.62	1.12	3.47	> 10	> 10
COc1ccc(CCNC(=O)C2CCN(c3nccn4nc5c(c34)CCCC5)CC2)cc1OC	> 10	> 10	4.07	8.91	> 10
c1coc(CNc2nc(Nc3cccc4ccccc34)nc3ccccc23)c1	5.01	7.94	2.82	5.75	> 10
COc1cc(OC)cc(C(=O)Nc2ccc3nc(N4CCC(C)CC4)cc(C)c3c2)c1	5.01	> 10	3.16	6.76	> 10
COc1ccc(CCNC(=O)c2cnn3c4c(cnc23)C[C@@H](C)CC4)cc1OC	> 10	> 10	3.02	1.26	> 10
CC(C)C(NC(=O)COc1ccccc1)C(=O)NCC(c1ccccc1Cl)c1c[nH]c2ccccc12 (stereo not given)	7.76	9.12	2.4	3.39	> 10
O=C(c1ccc2c(c1)OCO2)N1CCn2c1nc1ccccc12	> 10	> 10	1.58	0.513	> 10
CN(C)c1nc(N)cc(-c2cccc3cccnc23)n1	3.47	3.8	2	> 10	> 10

These reach a lower IC50 (Plasmodium falciparum [1]). Values come first.

IC50 (Plasmodium falciparum [1]) [µM]	IC50 (Plasmodium falciparum [2]) [µM]	IC50 (Plasmodium falciparum [3]) [µM]	IC50 (Plasmodium falciparum [5]) [µM]	SMILES	IC50 at 72 h [4] [µM]
2.57	3.55	1.74	8.71	COc1ccc2[nH]c3c(c2c1)CCN(C(=O)c1ccc(C)c(C)c1)[C@@H]3c1ccccc1OC	> 10
2.63	3.55	2.63	7.08	CCCN1CCC(NCc2ccc(-c3cccc(Cl)c3Cl)o2)CC1	> 10
1.2	1.66	0.891	> 10	Cc1ccc(-c2c[n+](-c3ccc(OC(F)F)cc3)c3n2CCCCC3)cc1	> 10
2.95	2.95	0.263	1.15	COc1cc(C(=O)Nc2ccc3sc(NC(=O)c4cc(OC)c(OC)c(OC)c4)nc3n2)cc(OC)c1OC	> 10
0.724	0.617	0.501	> 10	O=C(Cc1ccc(N(Cc2cccc(F)c2)C(=O)C2CCCC2)cc1)NCCN1CCCCC1	> 10
3.24	3.47	3.24	> 3.16	CCC[N+]1(CC#C[C@@](O)(c2ccccc2)C2(C)CCCC2)CCCCC1	> 10
1.55	2.04	1.51	2.95	CC(=O)c1cc(-c2cc(O)cc(CC[C@H]3CCCCN3)c2)ccc1O	> 10
2.4	2.24	1.74	3.39	Cc1cc(C(=O)N[C@@H](C)c2nc(-c3cccnc3)cs2)cc(O)n1	> 10
3.02	6.31	1.66	2.88	COc1ccc(-c2c(C(F)(F)F)n[nH]c2-c2ccc(OCc3ccccc3F)cc2O)cc1	> 10
1	1.35	1.23	1.74	CCN(CCN(C)C)C(=O)c1cccc(-c2ccc3nccc(N)c3c2)c1	> 10
2.29	4.07	2.45	> 10	O=C(N[C@@H]1CN(Cc2ccccn2)CCC[C@H]1O)c1ccc(OCc2ccccc2)cc1	> 10
3.24	4.07	1.82	3.16	Nc1nc(C2CC(N)C2)cc(N2CCC(Oc3ccccc3Cl)CC2)n1 (stereo not given)	> 10
1.51	1.41	0.759	6.17	C[n+]1ccc(-c2ncc(-c3ccccc3)o2)c2ccccc21	> 10
1.48	2.14	1.74	2.95	CN1CCN([C@H]2CCN(c3ccnc4ccc(Cl)cc34)C[C@H]2CCCO)CC1	> 10
1.66	2.82	1.86	5.62	Cc1ccc(-c2cc(O)cc(CC[C@H]3CCCCN3)c2)c(C)n1	> 10
2.14	3.8	1.23	1.78	Cn1cncc1CC(=O)Nc1ccnc(NC(=O)OC(C)(C)C)c1	> 10
2.88	4.17	1.1	1.66	CCCN1C(=O)c2ccccc2N2C(=O)CC[C@@]12C(=O)Nc1ccccc1	> 10
2.95	5.13	1.66	3.39	CCC(=O)N(Cc1ccc(-c2ccc(Cl)cc2)o1)[C@H]1CCS(=O)(=O)C1	> 10
2.69	4.68	2.24	> 10	CC[N+](C)(CC)CCOc1cc(C)c2ccccc2n1	> 10
0.661	0.741	0.724	> 10	CC[n+]1c(/C=C/N(C)c2ccccc2)oc2ccccc21	> 10
1.48	2.34	1.41	> 10	COc1ccc(C(=O)C[n+]2cc(-c3ccc(OC)cc3)n3c2CCCC3)cc1	> 10
